Measurements as given in patent publication US20250041380A1, “R[…] FOR SARS-COV2 DISEASE” (priority 2021, published 2025).
Like-named read-outs stand apart in the source and are kept apart here.

Key:
Format in all cases: cell-based
Bone cells (MG-63) = test: cells; details: Spike S1 Protein (10 μg/ml); for inhibition at 0.1 µM / inhibition at 1 µM / inhibition at 10 µM / inhibition at 20 µM: Homo sapiens, MG-63
Bladder cells (T24) = test: tissue or blood; details: Spike S1 Protein (5 μg/ml)
Cardiac cells (H9C2) = test: cells; details: Spike S1 Protein (5 μg/ml); for inhibition at 0.1 µM / inhibition at 1 µM / inhibition at 10 µM / inhibition at 20 µM: Rattus norvegicus, H9c2
[1] = tested on: pancreatic cells (PANC-1); test: cells; details: Spike S1 Protein (20 μg/ml)+
[2] = tested on: Endothelial cells (EA.hy926); test: cells; details: Spike S1 Protein (1 μg/ml)
[3] = 0.1 μM, read-out: % Inhibition (IL-6)
[4] = 0.1 μM, read-out: % Inhibition (IL-8)
[5] = 1 μM, read-out: % Inhibition (IL-6)
[6] = 1 μM, read-out: % Inhibition (IL-8)
[7] = 10 μM, read-out: % Inhibition (IL-6)
[8] = 10 μM, read-out: % Inhibition (IL-8)
[9] = 20 μM, read-out: % Inhibition (IL-6)
[10] = 20 μM, read-out: % Inhibition (IL-8)

## CCN(CCO)CCCC(C)Nc1ccnc2cc(Cl)ccc12 (centres unmarked) [Hydroxychloroquine sulphate]
Bone cells (MG-63); 0.1 μM
  Con. of IL-8: 703.3 pg/mL
  Conc. of IL-6: 136.5 pg/mL
Bone cells (MG-63); 1 μM
  Con. of IL-8: 660.0 pg/mL
  Conc. of IL-6: 171.8 pg/mL
Bone cells (MG-63); 10 μM
  Con. of IL-8: 774.4 pg/mL
  Conc. of IL-6: 233.8 pg/mL
Bone cells (MG-63); 20 μM
  Con. of IL-8: 1388.3 pg/mL
  Conc. of IL-6: 354.0 pg/mL
Bone cells (MG-63); 0.1 μM, read-out: % Inhibition (wrt Control), IL-6
  inhibition at 0.1 µM: 14.7%
Bone cells (MG-63); 0.1 μM, read-out: % Inhibition (wrt Control), IL-8
  inhibition at 0.1 µM: 0.6%
Bone cells (MG-63); 1 μM, read-out: % Inhibition (wrt Control), IL-6
  inhibition at 1 µM: -7.4%
Bone cells (MG-63); 1 μM, read-out: % Inhibition (wrt Control), IL-8
  inhibition at 1 µM: 6.8%
Bone cells (MG-63); 10 μM, read-out: % Inhibition (wrt Control), IL-6
  inhibition at 10 µM: -46.1%
Bone cells (MG-63); 10 μM, read-out: % Inhibition (wrt Control), IL-8
  inhibition at 10 µM: -9.4%
Bone cells (MG-63); 20 μM, read-out: % Inhibition (wrt Control), IL-6
  inhibition at 20 µM: -121%
Bone cells (MG-63); 20 μM, read-out: % Inhibition (wrt Control), IL-8
  inhibition at 20 µM: -96.2%
Bladder cells (T24); 0.1 μM
  Con. of IL-8: 2661.3
  Conc. of IL-6: 432.0
Bladder cells (T24); [3]
  inhibition at 0.1 µM: 25.2%
Bladder cells (T24); [4]
  inhibition at 0.1 µM: 37.7%
Bladder cells (T24); 1 μM
  Con. of IL-8: 2527.7
  Conc. of IL-6: 410.8
Bladder cells (T24); [5]
  inhibition at 1 µM: 28.9%
Bladder cells (T24); [6]
  inhibition at 1 µM: 40.9%
Bladder cells (T24); 10 μM
  Con. of IL-8: 2679.5
  Conc. of IL-6: 430.2
Bladder cells (T24); [7]
  inhibition at 10 µM: 25.5%
Bladder cells (T24); [8]
  inhibition at 10 µM: 37.3%
Bladder cells (T24); 20 μM
  Con. of IL-8: 2470.0
  Conc. of IL-6: 415.8
Bladder cells (T24); [9]
  inhibition at 20 µM: 28%
Bladder cells (T24); [10]
  inhibition at 20 µM: 42.2%
Cardiac cells (H9C2); 0.1 μM
  Con. of IL-8: 952.1
  Conc. of IL-6: 420.1
Cardiac cells (H9C2); 1 μM
  Con. of IL-8: 768.5
  Conc. of IL-6: 313.4
Cardiac cells (H9C2); 10 μM
  Con. of IL-8: 231.8
  Conc. of IL-6: 125.2
Cardiac cells (H9C2); 20 μM
  Con. of IL-8: 45.5
  Conc. of IL-6: 61.8
Cardiac cells (H9C2); [3]
  inhibition at 0.1 µM: 16.9%
Cardiac cells (H9C2); [4]
  inhibition at 0.1 µM: 33.5%
Cardiac cells (H9C2); [5]
  inhibition at 1 µM: 38%
Cardiac cells (H9C2); [6]
  inhibition at 1 µM: 46.3%
Cardiac cells (H9C2); [7]
  inhibition at 10 µM: 75.2%
Cardiac cells (H9C2); [8]
  inhibition at 10 µM: 83.8%
Cardiac cells (H9C2); [9]
  inhibition at 20 µM: 87.8%
Cardiac cells (H9C2); [10]
  inhibition at 20 µM: 96.8%
[1]; 0.1 μM
  Conc. of IL-8: 214 pg/mL
[1]; 1 μM
  Conc. of IL-8: 169.9 pg/mL
[1]; 10 μM
  Conc. of IL-8: 200.5 pg/mL
[1]; 20 μM
  Conc. of IL-8: 203 pg/mL
[1]; Homo sapiens, PANC-1, 0.1 μM, read-out: % Inhibition (wrt Control ), IL-8
  inhibition at 0.1 µM: 71.3%
[1]; Homo sapiens, PANC-1, 1 μM, read-out: % Inhibition (wrt Control ), IL-8
  inhibition at 1 µM: 77.2%
[1]; Homo sapiens, PANC-1, 10 μM, read-out: % Inhibition (wrt Control ), IL-8
  inhibition at 10 µM: 73.1%
[1]; Homo sapiens, PANC-1, 20 μM, read-out: % Inhibition (wrt Control ), IL-8
  inhibition at 20 µM: 72.8%
[2]; 0.1 μM
  Con. of IL-8: 826.7 pg/mL
  Conc. of IL-6: 145.1 pg/mL
[2]; 1 μM
  Con. of IL-8: 1026.6 pg/mL
  Conc. of IL-6: 200.3 pg/mL
[2]; 10 μM
  Con. of IL-8: 1756.7 pg/mL
  Conc. of IL-6: 64.0 pg/mL
